# Measured values reported in patent US9937178B2, “Methods of identifying and using MDM2 inhibitors” (DUKE UNIVERSITY, priority 2011, dated 2018).
# Tests used:
# rAU565-derived tumor = assay: rAU565 mammary fat pad xenograft; details: 100 mg/kg each drug, twice daily by oral gavage
# Protocol: (§1) Six week-old female nude mice were purchased from NCI Frederic. Xenograft tumors were produced by injection into the mammary fat pad with cells (10×10^6). Tumor volumes were calculated every 3-4 days based on caliper measurements of the short (a) and long (b) tumor diameters (volume=a2b/2). […] Mice were dosed orally with vehicle alone, lapatinib (100 mg/kg), Nutlin-3 (100 mg/kg), or combination of both twice daily by gavage.
# rBT474 xenografts = assay: rBT474 mammary fat pad xenograft; details: 100 mg/kg each drug, twice daily by oral gavage
# Protocol: (§2) Forty-eight hours after siRNA transfection, cells were treated with 1 μM lapatinib for 48 hours, and cells were harvested and subjected to Annexin V staining. The percentage of Annexin V-positive cells was analyzed by FACS. Results are expressed as a mean percentage±SEM and analyzed by t-test (*P<0.05). […] The oral administration of lapatinib (100 mg/kg, twice daily by oral gavage) began when the average tumor volume surpassed 300 mm^3. Results are expressed as a mean percentage±SEM. […] After 36 hours, cells were harvested and immunoblotted. […] BT474 and rBT474 cells were injected into the mammary fad pad of each mouse. When tumors developed to a size of 200 mm^3, the mice were randomly assigned to receive vehicle, lapatinib (100 mg/kg), Nutlin-3 (100 mg/kg), or Lapatinib+Nutlin-3 and treated twice daily by oral gavage. Results are expressed as a mean percentage±SEM. […] Percentage of apoptotic cell death was measured by FACS analysis using Annexin V. Results are expressed as a mean percentage±SEM of Annexin V-positive cells (*P<0.05 by t-test).
# (§3) Six week-old female nude mice were purchased from NCI Frederic. Xenograft tumors were produced by injection into the mammary fat pad with cells (10×10^6). Tumor volumes were calculated every 3-4 days based on caliper measurements of the short (a) and long (b) tumor diameters (volume=a2b/2). […]
# BT474 xenografts = assay: BT474 mammary fat pad xenograft; details: 100 mg/kg each drug, twice daily by oral gavage
# Protocol: as §2, §3
# AU565-derived tumor = assay: AU565 mammary fat pad xenograft; assay type: in vivo, mouse; details: 100 mg/kg each drug, twice daily by oral gavage
# Protocol: as §1
# PP5 = assay: Immunoblot of PP5 protein levels; assay type: cell-based; details: rSKBR3 cells, 1 μM lapatinib, 10 μM Nutlin-3a, 36 hours, z-VAD
# Protocol: FIG. 7 is a set of photographs and graphs showing PP5 stability and post-cytochrome c protection in lapatinib-resistant cells. FIG. 7A is an immunoblot for caspase-9 (cleaved and non-cleaved) and cleaved caspase-3 (C9 and C3, respectively) showing rBT474 cells cultured in the absence or presence of 1 μM lapatinib for one week, as compared to BT474 cells which were maintained without lapatinib. Cytosolic lysates prepared from BT474 or rBT474 were incubated with 1 mM dATP and various amounts of cytochrome c (CC). FIG. 7B is a set of graphs showing Caspase 3 activity in the indicated cell lysates over time. Caspase-3 activity was assayed by measuring cleavage of DEVD-pNA following incubation of the cell lysates with 1 mM dATP and various concentrations of cytochrome c. FIG. 7C is an autoradiograph of ^32P and an immunoblot showing the percentage of the protein phosphorylated. In the presence of [γ-^32P]ATP, recombinant His-tagged HSP90β proteins (wild type and the indicated mutants) on nickel beads were incubated with the HSP90β-targeted kinase casein kinase 2. FIG. 7D is an autoradiograph and corresponding immunoblot showing BT474 or rBT474 cells after being cultured in the absence or presence of 1 μM lapatinib for 24 hours in the presence of z-VAD. Recombinant His-tagged HSP90β protein on nickel beads was incubated with the cell lysates in the presence of [γ-^32P]ATP. FIG. 7E is an immunoblot for phospho-Hsp90β (Ser226) and total HSP90β at various time points. […] FIG. 7F is a set of graphs showing FACS analysis for the phosphorylation status of Hsp90β (Ser255). BT474 or rBT474 cells cultured in the presence of 1 μM lapatinib for 24 hours were fixed with formaldehyde and incubated with phospho-Hsp90β (Ser255) antibody followed by an Alexa488-conjugated secondary antibody. FIG. 7G is an immunoblot for PP5 and actin at the indicated time points. BT474 and rBT474 (left) or AU565 and rAU565 cells (right) were treated with 1 μM lapatinib. FIG. 7H is an autoradiograph of immunoprecipitated FLAG-PP5 using an anti-FLAG agarose. […]
# CAS = assay: Immunoblot of CAS protein levels; assay type: cell-based; details: rSKBR3 cells, 1 μM lapatinib, 10 μM Nutlin-3a, 36 hours, z-VAD
# Protocol: FIG. 11 is a set of photographs of immunoblots showing CAS degradation in lapatinib-resistant cells. FIG. 11A is an immunoblot for CAS and Actin. BT474 and rBT474 (left) or AU565 and rAU565 cells (right) cultured in the absence of lapatinib for one week were treated with 1 μM lapatinib and the cells were harvested at various time points. FIG. 11B is an immmunoblot for CAS and Actin. rBT474 cells were maintained in the presence of […] lapatinib and the cells were harvested at various time points following removal of lapatinib. FIG. 11C is an immunoblot for FLAG and actin. BT474 and rBT474 cells were transiently transfected with FLAG-tagged CAS and subsequently treated with 50 μg/ml cycloheximide (CHX) and 1 μM lapatinib and the cells were harvested at various time points. FIG. 11D is an immunoblot using HA to analyze ubiquitination of CAS. BT474 and rBT474 (left) or SKBR3 and rSKBR3 cells (right) were co-transfected with FLAG-CAS and HA-Ub. […] After treatment with 10 μM MG 132 for 8 hours, cells were harvested and FLAG-CAS was retrieved by immunoprecipitation. FIG. 11E is an immunoblot for FLAG-tagged proteins retrieved by immunoprecipitation and association with MDM2. H1299 cells were transfected with empty vector, FLAG-CAS^W127A, or FLAG-CAS wild type. FIG. 11F is an immunoblot for CAs after immunoprecipitation for FLAG. H1299 cells were transfected with empty vector, FLAG-CAS^W127A, or FLAG-CAS wild type. Cells were treated with 10 μM MG132 for 3 hours. […] SKBR3 cells were transfected with increasing amounts of MDM2. After 48 hours, cells were harvested and immunoblotted (*non-specific band). FIG. 11H is an immunoblot for CAS. […] FIG. 11I is an immunoblot for MDM2 or CAs after immunoprecipitation with FLAG. BT474 and rBT474 cells were transfected with FLAG-CAS. […] After treatment with 10 μM MG132 for 5 hours, FLAG-CAS was retrieved by immunoprecipitation and association of endogenous MDM2 was analyzed by immunoblotting.
# Mcl-1 [1] = assay: Immunoblot of Mcl-1 protein levels; assay type: cell-based; details: rSKBR3 cells, 1 μM lapatinib, 10 μM Nutlin-3a, 36 hours, z-VAD
# Protocol: FIG. 3 is a set of photographs showing that Mcl-1 is stabilized in lapatinib-resistant cells. […] FIG. 3B is a set of immunoblots showing the levels of HER2 and phospho-HER2 in untreated cells and cells treated with lapatinib. Cells were treated with or without lapatinib (1 μM) for 24 hours in the presence of the caspase inhibitor z-VAD (50 μM). The cells were harvested and cell lysates were immunoblotted using antibodies against phospho-HER2 (Y877) and total HER2. FIG. 3C is an immunoblot for phospho-AKT (T308) and total AKT. BT474 and rBT474 cells were treated with 1 μM lapatinib in the presence of 50 μM z-VAD. At the indicated time points, the cells were harvested and immunoblotted. FIG. 3D is an immunoblot for phospho-Erl1/2(T202/Y204) and total Erk1/2. BT474 and rBT474 cells were treated with 1 μM lapatinib in the presence of 50 μM z-VAD. At the indicated time points, the cells were harvested and immunoblotted. FIG. 3E is an immunoblot for Mcl-1, Bim, and Actin. BT474 and rBT474 cells (left) or SKBR3 and rSKBR3 cells (right) were treated with 1 μM lapatinib. The cells were harvested at the indicated time points and immunoblotted. FIG. 3F is an autoradiograph showing the ^35[S] radioactivity in lysates containing ^35[S]-Mcl-1 at the indicated time points. ^35[S]-labeled Mcl-1 protein was incubated in cell-free lysates prepared from BT474 and rBT474 cells (top) or SKBR3 and rSKBR3 cells (bottom). FIG. 3G is an autograph showing the ^35[S]-labeled Mcl-1 to monitor Mcl-1 stability over time. The ^35[S]-labeled Mcl-1 was incubated in lysates prepared from rBT474 cells treated with or without 1 μM lapatinib. FIG. 3H is an immunoblot for HA. SKBR3 or rSKBR3 cells were co-transfected with FLAG-Mcl-1 and HA-Ubiquitin (Ub). […] Cells were harvested after treatment with 10 μM MG 132 for 4 hours. FLAG-Mcl-1 was retrieved by immunoprecipitation using anti-flag agarose, and Mcl-1 ubiquitylation was analyzed by immunoblotting for HA (*non-specific band, **IgG heavy chain).
# Huwe1 = assay: Immunoblot of Huwe1 protein levels and stability; assay type: cell-based; details: rSKBR3 cells, 1 μM lapatinib, 10 μM Nutlin-3a, 36 hours, z-VAD
# Protocol: FIG. 13 is a set of immunoblots showing MDM2-mediated ubiquitylation and degradation of Huwe1 in lapatinib-resistant cells. […] Cells treated with 1 μM lapatinib were harvested at various time points and immunoblotted. […] FIG. 13B is an immunoblot for HA and actin. BT474 and rBT474 cells were transiently transfected with HA-tagged Huwe1 and subsequently treated with 50 μg/ml cycloheximide (CHX) and 1 μM lapatinib. FIG. 13C is an immunoblot for Huwe1 and MDM2. Immunoprecipitation was carried out using H1299 cell lysates and anti-Huwe1 antibody (or control IgG). FIG. 13D is an immunoblot for HA or MDM2 after immunoprecipitation with HA. BT474 cells were transfected with HA-tagged Huwe1 encoding the full-length protein, residues 1-2474, or residues 2473-4374. […] H1299 cells were transfected with empty vector, HA-Huwe1^W1202A, or HA-Huwe1 wild type. FIG. 13F is an immunoblot for Huwe1 and Actin. BT474 cells were transfected with increasing amounts of MDM2 and harvested after 48 hours. FIG. 13G is an immunoblot for Huwe1, MDM2, and actin. […] FIG. 13H is an immunoblot for Huwe1. Ubiquitylation of Huwe1 was reconstituted in vitro by incubating recombinant Huwe1 protein (Huwe1^1-2474) with E1, UbcH5 (E2), ubiquitin (Ub), and recombinant MDM2 protein in reaction buffer at 37° C. for 3 hours. […] Twenty-four hours later, the cells were replated and further transfected with HA-tagged Huwe1 (wild type). Forty-eight hours after siRNA transfection, the cells were treated with 1 μM lapatinib. After 24 hours of lapatinib treatment, 50 μg/ml cycloheximide (CHX) was added to the culture medium and cells were harvested at various time points for immunoblotting.
# Mcl-1 [2] = assay: 35[S]-Mcl-1 degradation in cell-free lysates; assay type: cell-based; details: resistant cell lysates, 5 μM ubiquitin aldehyde
# Protocol: FIG. 3 is a set of photographs showing that Mcl-1 is stabilized in lapatinib-resistant cells. […] FIG. 3B is a set of immunoblots showing the levels of HER2 and phospho-HER2 in untreated cells and cells treated with lapatinib. Cells were treated with or without lapatinib (1 μM) for 24 hours in the presence of the caspase inhibitor z-VAD (50 μM). The cells were harvested and cell lysates were immunoblotted using antibodies against phospho-HER2 (Y877) and total HER2. FIG. 3C is an immunoblot for phospho-AKT (T308) and total AKT. BT474 and rBT474 cells were treated with 1 μM lapatinib in the presence of 50 μM z-VAD. At the indicated time points, the cells were harvested and immunoblotted. FIG. 3D is an immunoblot for phospho-Erl1/2(T202/Y204) and total Erk1/2. BT474 and rBT474 cells were treated with 1 μM lapatinib in the presence of 50 μM z-VAD. At the indicated time points, the cells were harvested and immunoblotted. […] FIG. 3F is an autoradiograph showing the ^35[S] radioactivity in lysates containing ^35[S]-Mcl-1 at the indicated time points. ^35[S]-labeled Mcl-1 protein was incubated in cell-free lysates prepared from BT474 and rBT474 cells (top) or SKBR3 and rSKBR3 cells (bottom). […] FLAG-Mcl-1 was retrieved by immunoprecipitation using anti-flag agarose, and Mcl-1 ubiquitylation was analyzed by immunoblotting for HA (*non-specific band, **IgG heavy chain). […]
compound,measurement,setting,value
COc1ccc(C2=N[C@@H](c3ccc(Cl)cc3)[C@@H](c3ccc(Cl)cc3)N2C(=O)N2CCNC(=O)C2)c(OC(C)C)c1 [Nutlin-3],rAU565-derived tumor growth,rAU565-derived tumor,moderate tumor inhibitory effects
same,rBT474-derived tumor growth,rBT474 xenografts,Neither lapatinib nor Nutlin-3 inhibited
same,growth of BT474-derived tumors,BT474 xenografts,only modestly inhibited
same,AU565-derived tumor growth,AU565-derived tumor,moderate tumor inhibitory effects
COc1ccc(C2=N[C@@H](c3ccc(Cl)cc3)[C@@H](c3ccc(Cl)cc3)N2C(=O)N2CCNC(=O)C2)c(OC(C)C)c1 [Nutlin-3a],lapatinib-induced upregulation of PP5,PP5,suppressed
same,CAS degradation,CAS,significantly inhibited
same,lapatinib-induced upregulation of Mcl-1,Mcl-1 [1],suppressed
same,lapatinib-induced degradation of Huwe1,Huwe1,prevented
ubiquitin aldehyde,degradation of 35[S]-Mcl-1,Mcl-1 [2],did not prevent the failure to degrade
